Test results from patent publication US12239132B2, “Compounds and methods for increasing soil nutrient availability” (SOUND AGRICULTURE COMPANY, priority 2018, dated 2025).
“Also recorded” adds a separate entry of the source.

Assays:
soil consortia cultures = assay: Phosphate solubilization in soil-inoculated NBRIP cultures; assay type: cell-based
Method: To select for the native soil microbial consortia that solubilize phosphorus, a small quantity of soil was inoculated into flask cultures of NBRIP media. Flasks were treated with increasing amounts of AB09 and grown at room temperature on orbital shakers for 4 days. The cleared supernatant of the soil cultures were quantified for available phosphorus using the malachite green method.
FIG. 3. AB09 induced phosphate solubilization activity occurs in a dose-dependent manner in soil consortia cultures. 50 mL of NBRIP growth medium was added to 250 mL baffled flasks, containing 500 mg of 2 mm particle-sized soil, to select for phosphate solubilizing microbes. Flasks with sterilized foam caps were placed on orbital shakers at 110 RPM for 4 days at room temperature. Orthophosphate was measured using the malachite-green phosphate method.
50 mL of NBRIP growth medium was added to 250 mL baffled flasks, containing 500 mg of 2 mm particle-sized soil, to select for phosphate solubilizing microbes. AB09 stock solution (10 mg/mL) was prepared in distilled water. Untreated controls received no AB09. […]
Flasks with sterilized foam caps were placed on orbital shakers at 110 RPM for 4 days at room temperature. […] Supernatant from samples were removed and placed into new microcentrifuge tubes for orthophosphate quantification using the malachite green method.

tomato = assay: Field trials in tomato; assay type: in vivo
Text: Field trials show both increasing yield and larger, higher quality fruits. Tomato yields were increased by up to 40% in California field trials.

[1] = tested on: soil consortia cultures with corn plant; assay: Phosphate solubilization with corn (foliar spray or soil applied) in soil consortia cultures; assay type: in vivo, B73 Corn
Text: In order to test the ability of AB09 to stimulate a phosphate solubilization phenotype when applied on plants versus directly into soil, a 3 week old corn plant was introduced into the soil consortia cultures. Approximately two weeks prior to the experiment, corn plants were removed from soil and roots were cleaned of potting soil. […] Corn leaves were sprayed with AB09 (roots protected with foil during spray application) and roots were placed in flasks of NBRIP liquid media and soil inoculant (FIG. 4B). The flasks were placed on a low speed orbital shaker under fluorescent lights and the media supernatant was tested for phosphate concentration after 24 h.
FIG. 4A illustrates that B73 Corn plants were grown until V3 growth stage, removed from soil, rinsed, and placed in tap water for 1.5 weeks to induce nutrient stress FIG. 4B illustrates that plants received either foliar (3 mL/plant using a fingertip sprayer) or soil applied treatments and were placed in 250 mL baffled flasks containing 50 mL NBRIP growth medium ([53 mM] Ca3(PO4)2) and 500 mg of 2 mm particle-sized soil. Flasks with treated corn and sterilized foam caps with were placed on orbital shakers at 100 RPM for 1 day at room temperature under fluorescent lights. FIG. 4C illustrates that orthophosphate was measured using the malachite-green phosphate method. […]

[2] = Field trial of soil phosphate depletion on Iowa farmland; assay type: in vivo; settings: Iowa field plots, vs untreated plots
Method: Available soil phosphate was measured at the beginning of the growing season (Pre VT) and at the end of the growing season (Post VT).
The solubilizing activity of AB09 was measured in field trials on Iowa farmland. Over the course of a growing season, plants pull available phosphate from the soil, resulting in lower levels at the end of the season versus at the beginning. This phosphate depletion can be measured with standard soil tests.

[3] = tested on: nif operon structural genes (nifH, nifD, and nifK); assay: RNA-seq of Azotobacter vinlandii; assay type: cell-based; settings: 25 ug/mL, nitrogen free media, 48 h, RNA-seq (FPKM)
Method: Global gene expression profiles of Azotobacter vinlandii grown in nitrogen free media were compared with and without AB09 treatment using RNA sequencing (RNA-seq).
A starter liquid culture of A. vinlandii in Burks-N media (at OD600=0.02) was divided into six flasks. Three flasks received AB09 at 25 ug/mL and three received a mock treatment. RNA was collected at 48 h of growth. One mL of 48 h cultures of Azotobacter vinlandii were pelleted for 3 minutes as 13,000 rpm. Supernatant was removed and pellets were flash frozen in liquid nitrogen. RNA was extracted with the Norgen RNA extraction kit. Ribo-depletion and sequencing libraries were constructed by Seqmatic, Inc. (Fremont, CA). Illumina single-end reads of 150 nt were mapped using bowtie (-v 2 -k2 -chunkmbs 3000) to the Azotobacter vinelandii CA (ASM38033v1) cds sequences. Custom perl scripts were used to extract the uniquely mapped reads and calculate the read count per million mapped reads (multi and uniquely mapped) per kilobase of gene for each gene.

wheat = assay: Wheat plant growth assay (seed treatment); assay type: in vivo; settings: seed treatment 1 ug/seed, four days after emergence, vs mock treated
Method: To determine the effect of AB09 on plants, AB09 was seed treated at a rate of 1 ug/seed onto wheat seeds. Plants were analyzed four days after emergence. […] AB09 was applied to wheat seeds, which were planted in sand and shoots were measured for height at four days post-emergence. Control seeds received a mock treatment. The WinRhizo Pro root scanner and software were used to obtain root length and surface area. AB09 at a rate of lug/seed in acetone was treated onto seeds and the acetone was allowed to fully evaporate. Control seeds were mock treated with acetone. Seeds were planted in wet sand in 50 mL tubes sand, placed under fluorescent lights, and watered with tap water. Seedlings were measured four days post-emergence for shoot height. The WinRhizo Pro root scanner and software were used to obtain root length and surface area.

CC1=CC(Oc2c(C)occc2=O)OC1=O (centres unmarked) [AB09, maltol lactone]
increase of phosphate concentration over the untreated control (soil consortia cultures; highest treatment 25 ug/mL, 4 days, room temperature): 2-3 fold | ability of soil consortia cultures to solubilize phosphorus (soil consortia cultures; increasing amounts of AB09, 4 days): enhanced by AB09 in a dose-responsive manner | increase of tomato yields (tomato; California field trials): up to 40% | tomato fruit size and number (tomato; treated plants): larger and more numerous fruits | phosphate solubilization, treatment directly applied to the soil supernatant ([1]; corn roots in NBRIP with soil inoculant, after 24 h): increase | phosphate solubilization, treatment applied to corn leaves as a foliar spray ([1]; two treatment doses (25 or 50 ug/mL, 3 mL/plant), media supernatant after 24 h): increase | soil phosphate depletion over the growing season (pre VT to post VT) [2]: less phosphate depletion; also recorded: significantly reduced | expression of nif operon structural genes nifH, nifD and nifK over control cultures [3]: increase | root length (wheat): increase | root surface area (wheat): increase | shoot height (wheat): increase
